In patent US6645976B1 (Eli Lilly and Company, priority 1994, dated 2003):

biological target: T1, recombinant human secreted phospholipase A2 (Homo sapiens, UniProt P14555); assay: sPLA2 Chromogenic Assay (Assay 1); format: biochemical; settings: diheptanoyl thio-PC substrate, pH 7.5, 40° C. for 30 minutes, absorbance at 405 nanometers
T1 sequence (P14555 21-144): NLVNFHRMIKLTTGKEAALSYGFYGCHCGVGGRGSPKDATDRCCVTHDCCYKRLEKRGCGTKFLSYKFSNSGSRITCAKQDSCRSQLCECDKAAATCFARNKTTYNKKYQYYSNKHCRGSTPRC
Method: The following chromogenic assay procedure was used to identify and evaluate inhibitors of recombinant human secreted phospholipase A2. The assay described herein has been adapted for high volume screening using 96 well microtiter plates.
A measured volume of racemic dipheptanoyl thio PC supplied in chloroform at a concentration of 100 mg/ml is taken to dryness and redissolved in 10 millimolar TRITON X-100™ nonionic detergent aqueous solution. Reaction Buffer is added to the solution, then DTNB to give the Reaction Mixture.
The reaction mixture thus obtained contains 1 mM diheptanoyl thio-PC substrate, 0.29 mm Triton X-100™ detergent, and 0.12 mm DTMB in a buffered aqueous solution at pH 7.5.
1. Add 0.2 ml reaction mixture to all wells;
2. Add 10 ul test compound (or solvent blank) to appropriate wells, mix 20 seconds;
3. Add 50 nanograms of sPLA2 (10 microliters) to appropriate wells;
4. Incubate plate at 40° C. for 30 minutes;
All compounds were tested in triplicate. […] Each sample was titrated in triplicate and result values were averaged for plotting and calculation of IC50 values.

Compound	IC50 [nM]
Cc1c(C(=O)C(N)=O)c2c(OCC(=O)O)cccn2c1CC1CCCC1 [Compound 52w, 2-(8-(Carboxymethyloxy)-3-cyclopentylmethyl-2-methylindolizin-1-yl)glyoxylamide]	14
CCc1c(Cc2ccccc2)c2ccc(OCCCC(=O)O)cn2c1C(=O)C(N)=O [Compound 11, (1-Benzyl-6-(3-carboxypropyloxy)-2-ethylindolizin-3-yl)glyoxylamide]	1100
CCc1c(C(=O)C(N)=O)c2cc(OCCC(=O)O)ccn2c1Cc1ccccc1-c1ccccc1 [Compound 70b]	240
CCc1c(C(=O)C(N)=O)c2c(OCC(=O)OC(C)OC(=O)OC)cccn2c1Cc1ccccc1-c1ccccc1 (centres unmarked) [Compound 59b, 2-(3-Biphenyl-2-ylmethyl-8-(1-methoxycarbonyloxyethoxycarbonylmethoxy)-2-ethylindolizin-1-yl)glyoxylamide]	11
CCc1c(C(=O)C(N)=O)c2c(OCC(=O)O)cccn2c1Cc1ccccc1Cc1ccccc1 [Compound 52j, 2-(8-(Carboxymethyloxy)-3-o-benzylbenzyl-2-ethylindolizin-1-yl)glyoxylamide]	6
CCc1c(C(=O)C(N)=O)c2c(OCC(=O)OC(C)C(=O)OC3CCCCC3)cccn2c1Cc1ccccc1-c1ccccc1 (centres unmarked) [Compound 59e]	55
CCc1c(C(=O)C(N)=O)c2c(OCC(=O)OC)cccn2c1Cc1cccc(-c2ccccc2)c1 [Compound 57g, 2-(8-Carbomethoxymethyloxy-2-ethyl-3-(m-phenylbenzyl)indlolin-1-yl)glyoxylamide]	80
CCc1c(CC(N)=O)c2c(O)cccn2c1Cc1ccccc1-c1ccccc1 [Compound 20x, 2-(2-Ethyl-8-hydroxy-3-(o-phenylbenzyl)-indolizin-1-yl)acetamide]	840
CCc1c(C(=O)C(=O)NC)c2c(OCC(=O)O)cccn2c1Cc1ccccc1 [Compound 40b, (3-Benzyl-8-(carboxymethyloxy)-2-ethylindolizin-1-yl)glyoxyl-N-methylamide, reference compound]	> 50000
CCOC(=O)CCCOc1ccn2c(Cc3ccccc3-c3ccccc3)c(CC)c(CC(N)=O)c2c1 [Compound 71a, 2-(7-(3-Carbethoxypropyloxy)-2-ethyl-3-(o-phenylbenzyl)indolizin-1-yl)acetamide]	600
CCc1c(C(=O)C(N)=O)c2c(OCCC(=O)O)cccn2c1Cc1ccccc1-c1ccccc1 [Compound 70a, 2-(3-(Biphenyl-2-yl-methyl)-8-(carboxyethyloxy)-2-ethylindolizine-1-yl)glyoxylamide]	44
CCc1c(C(=O)C(N)=O)c2c(OCc3nnnn3C(c3ccccc3)(c3ccccc3)c3ccccc3)cccn2c1Cc1ccccc1-c1ccccc1 [Compound 59l, 2-(3-(Biphenyl-2-yl-methyl)-2-ethyl-8-(1-tritytretrazol(-5-yl)methyloxy)indolizine-1-yl)glyoxylamide]	110
NC(=O)C(=O)c1c(C2CC2)c(CC2CCCC2)n2cccc(OCC(=O)O)c12 [Compound 52v, 2-(8-(Carboxymethyloxy)-3-cyclopentylmethyl-2-cyclopropylindolizin-1-yl)glyoxylamide]	29
2-(3-(Biphenyl-2-yl-methyl)-8-(carboxymethyloxy)-2-ethylindolizine-1-yl)glyoxylamide diglycolate [Compound 59j]	53
CC(C)c1c(C(=O)C(N)=O)c2c(OCC(=O)O)cccn2c1Cc1ccccc1-c1ccccc1 [Compound 58c]	35
Cc1c(C(=O)C(N)=O)c2c(OCC(=O)O)cccn2c1Cc1ccccc1 [Compound 40g, (3-Benzyl-8-(carboxymethyloxy)-2-methylindolizin-1-yl)glyoxylamide]	8
CCc1c(C(=O)C(N)=O)c2cc(OCCCC(=O)O)ccn2c1Cc1ccccc1-c1ccccc1 [Compound 67c, 2-(7-(3-Carboxypropyloxy)-2-ethyl-3-(o-phenylbenzyl)indolizin-1-yl)glyoxylamide]	140
CCc1c(C(=O)C(N)=O)c2c(OCC(=O)O)cccn2c1Cc1ccccc1 [Compound 40a, (3-Benzyl-8-(carboxymethyloxy)-2-ethylindolizin-1-yl)glyoxylamide]	8
CCc1c(C(=O)C(N)=O)c2c(OCC(=O)O)cccn2c1CCc1ccccc1 [Compound 52i, 2-(8-(Carboxymethyoxy)-2-ethyl-3-(2-phenylethyl)indolizin-1-yl)glyoxylamide]	51
CCc1c(CC(N)=O)c2c(OCC(=O)OCc3ccccc3)cccn2c1Cc1ccccc1-c1ccccc1 [Compound 21x, 2-(8-(Benzyloxycarbonylmethyloxy)-2-ethyl-3-(o-phenylbenzyl)indolizin-1-yl)acetamide]	140

Compound	IC50 [nM]
CSc1c(C(=O)C(N)=O)c2c(OCC(=O)O)cccn2c1Cc1ccccc1-c1ccccc1 [Compound 83, 2-(8-(Carboxymethyloxy)-2-methylthio-3-(o-phenylbenzyl)indolizin-lyl)-glyoxylamide]	16
CCc1c(C(=O)C(=O)N(C)C)c2c(OCC(=O)O)cccn2c1Cc1ccccc1 [Compound 40c, (3-Benzyl-8-(carboxymethyloxy)-2-ethylindolizin-1-yl)glyoxyl-N,N-dimethylamide, reference compound]	> 50000
CCc1c(C(=O)C(N)=O)c2c(OCC(=O)O)cccn2c1Cc1cccs1 [Compound 52k, 2-(8-(Carboxymethyloxy)-2-ethyl-3-(thiophen-2-ylmethyl)indolizin-1-yl)glyoxylamide]	11
CCc1c(CC(N)=O)c2c(OCC(=O)O)cccn2c1Cc1ccccc1-c1ccccc1 [Compound 22x, 2-(8-(Carboxymethyloxy)-2-ethyl-3-(o-phenylbenzyl)indolizin-1-yl)acetamide]	14
CCCCCc1c(CC)c(C(=O)C(N)=O)c2c(OCC(=O)O)cccn12 [Compound 52e, 2-(8-Carboxymethyloxy-2-ethyl-3-pentylindolizin-1-yl)glyoxylamide]	62
CCc1c(C(=O)C(N)=O)c2c(OCC(=O)O)cccn2c1Cc1cccc(OC)c1 [Compound 52m, 2-(2-Ethyl-8-(carboxymethyloxy)-3-(m-methoxybenzyl)indolizine-1-yl)glyoxylamide]	21
CCc1c(CC(N)=O)c2c(OCC(=O)O)cccn2c1Cc1cccc(Cl)c1 [Compound 22y, 2-(8-(Carboxymethyloxy)-3-(m-chlorobenzyl)-2-ethylindolizin-1-yl)acetamide]	15
CCCCCC1CCC(Cc2c(CC)c(C(=O)C(N)=O)c3c(OCC(=O)O)cccn23)CC1 (centres unmarked) [Compound 52o, 2-(8-(Carboxymethyloxy)-2-ethyl-3-(4-n-pentylcyclohexylmethyl)indolizin-1-yl)glyoxylamide]	25
Cc1c(C(=O)C(N)=O)c2c(OCC(=O)O)cccn2c1Cc1ccccc1-c1ccccc1 [Compound 58a, 2-(3-(Biphenyl-2-ylmethyl)-8-carboxymethoxyl-2-methylindolizin-1-yl)glyoxylamide]	8
CCc1c(C(=O)C(N)=O)c2c(OCC(=O)OCCC(=O)OC3(C)CCCC3)cccn2c1Cc1ccccc1-c1ccccc1 [Compound 59h, 2-(3-Biphenyl-2-ylmethyl-2-ethyl-8-(1-methylcyclopentyloxycarbonylethyloxycarbonyl-methyloxy)-indolizin-1-yl)glyoxylamide]	61
COC(=O)COc1cccn2c(Cc3cccc4ccccc34)c(C3CC3)c(C(=O)C(N)=O)c12 [Compound 57j, 2-(8-Carbomethoxymethyloxy-2-cyclopropyl-3-(1-naphthylmethyl)indlolin-1-yl)glyoxylamide]	790
CCc1c(C(=O)C(N)=O)c2c(OCC(=O)O)cccn2c1Cc1ccccc1[N+](=O)[O-] [Compound 52n, 2-(2-Ethyl-8-(carboxymethyloxy)-3-(o-nitrobenzyl)indolizine-1-yl)glyoxylamide]	36
CCCCc1ccc(Cc2c(CC)c(C(=O)C(N)=O)c3c(OCC(=O)O)cccn23)cc1 [Compound 52s, 2-(3-(p-n-Butylbenzyl)-8-(carboxymethyloxy)-2-ethylindolizin-1-yl)glyoxylamide]	11
NC(=O)C(=O)c1c(C2CC2)c(Cc2ccccc2)n2cccc(OCC(=O)O)c12 [Compound 52r, 2-(3-Benzyl-8-carboxymethyloxy-2-cyclopropylindolizin-1-yl)-glyoxylamide]	46
CCc1c(C(=O)C(N)=O)c2c(OCC(=O)O)cccn2c1CC1CCCCC1 [Compound 52b, 2-(8-Carboxymethyloxy-3-cyclohexylmethyl-2-ethylindolizin-1-yl)glyoxylamide]	21
CCc1c(C(=O)C(N)=O)c2c(OCC(=O)O)cccn2c1CC1CCCCCC1 [Compound 52d, 2-(8-Carboxymethyloxy-3-cycloheptylmethyl-2-ethylindolizin-1-yl)glyoxylamide]	23
COC(=O)COc1cccn2c(Cc3ccccc3-c3ccccc3)c(SC)c(C(=O)C(N)=O)c12 [Compound 82, 2-(8-(Carbomethoxymethyloxy)-2-methylthio-3-(o-phenylbenzyl)indolizin-1-yl)glyoxylamide]	120
CCc1c(C(=O)C(N)=O)c2c(OCC(=O)OC)cccn2c1Cc1cccs1 [Compound 51k]	220
CCc1c(C(=O)C(N)=O)c2c(OCC(=O)OC(C)OC(=O)OC(C)C)cccn2c1Cc1ccccc1-c1ccccc1 (centres unmarked) [Compound 59c, 2-(3-Biphenyl-2-ylmethyl-2-ethyl-8-(1-isopropyloxycarbonyloxyethoxycarbonylmethoxy)indolizin-1-yl)glyoxylamide]	46
CCc1c(C(=O)C(N)=O)c2cc(OCCCC(=O)O)ccn2c1Cc1ccccc1 [Compound 67a, 2-(3-Benzyl-7-(3-carboxylpropyloxy)-2-ethylindolizin-1-yl)glyoxylamide]	200

tested on: not given; assay: not given; settings: not given

Compound	melting point [°C]
CCc1c(C(=O)C(N)=O)c2c(OCC(=O)OC)cccn2c1Cc1ccccc1[N+](=O)[O-] [Compound 51n, 2-(2-Ethyl-8-(carbomethoxymethyloxy)-3-(o-nitrobenzyl)indolizine-1-yl)glyoxylamide]	156 to 157
